Measured values reported in patent US20230243815A1, “AN APPARATUS COMPRISING MICROFLUIDIC PROTEIN-BASED SENSORS AND METHODS OF USING SAME” (UNIVERSITY OF MARYLAND, BALTIMORE COUNTY, priority 2020, published 2023).
pKd: −log10 of the molar value.

What follows are molecules tested against branched-chain amino acid binding protein (Escherichia coli, UniProt P0AD96) (assay: Binding of amino acids to branched-chain amino acid binding protein biosensor (microfluidic column sensor)). Conditions: binding affinity of the analyte to the branched-chain amino acid binding protein biosensor; FIG. 9.
Description: FIG. 9(A) illustrates amino acids that bind at varying affinities to a microfluidic column biosensor, where F/F0 is the fluorescence intensity ratio.
Microfluidic column sensors are also useful when the biosensor detects more than one analyte but with different binding affinities. […] This is shown in FIG. 9, where a mixture of these amino acids can be separately detected over the length of the microfluidic column.

Chain of branched-chain amino acid binding protein (P0AD96 24-367): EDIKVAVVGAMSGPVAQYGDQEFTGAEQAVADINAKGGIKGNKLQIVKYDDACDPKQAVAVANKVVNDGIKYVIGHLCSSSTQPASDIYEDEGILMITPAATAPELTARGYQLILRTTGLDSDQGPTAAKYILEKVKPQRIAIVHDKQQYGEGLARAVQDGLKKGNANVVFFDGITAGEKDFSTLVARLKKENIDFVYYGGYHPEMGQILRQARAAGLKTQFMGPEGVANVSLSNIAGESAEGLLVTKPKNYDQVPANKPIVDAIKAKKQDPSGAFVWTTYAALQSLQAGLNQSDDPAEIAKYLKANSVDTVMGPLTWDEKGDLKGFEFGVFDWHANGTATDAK

Question: With `CC[C@H](C)[C@H](N)C(=O)O` [isoleucine] as the molecule, how does the pKd read?
Answer: The pKd was 4.17.

Question: `CC(C)C[C@H](N)C(=O)O` [leucine] was tested. Which pKd did it give?
Answer: The pKd was 4.24.

Question: `CC(C)[C@H](N)C(=O)O` [valine] was tested. Which pKd did it give?
Answer: Its pKd is 3.87.
